In patent US20090280062A1, “LONGEVITY-PROMOTING EFFECTS OF ACETIC ACID AND REISHI POLYSACCHARIDE” (priority 2008, published 2009):

Experiments:
[1] = system: wild-type C. elegans (N2); test: Lifespan analysis of C. elegans after treatment with test substances; assay type: in vivo; settings: acetic acid and vitamins 50 ppm, RF3 and mushroom polysaccharide fractions 100 ppm (FIG. 1); 20° C.; versus water control
Source text: Strains, bacteria, natural products and chemicals. The wild-type N2 strain of C. elegans were used in all experiments. The worms were maintained and cultured on nematode growth medium (NGM) agar plates or in liquid medium with E. coli OP50 as a food source. […] Contaminating food and worm debris were removed by sucrose floatation. In addition to OP50, two E. coli strains for RNAi were used (III-1N20 for TIR-1 RNAi and I-5M24 for DAF-16 RNAi). RF3, crude mycelium-powders of A. camphorate and H. erinaceus were prepared as described in previous papers. Each solution was diluted with deionized water to make test solutions of desired concentrations for various assays. Lifespan analysis after treatment with various substances.

DAF-16 = test: Semi-quantitative RT-PCR of DAF-16 transcripts in C. elegans; assay type: in vivo; settings: day 2 after treatment; acetic acid 50 ppm, extracts 100 ppm; normalised to ACT-1
Procedure: (§1) RNA preparation and reverse transcriptase-PCR(RT-PCR). Total RNA from batches of C. elegans were isolated from samples in the NGM medium at appropriate time intervals using an RNeasy mini kit (Qiagen). Subsequently, RNA (500 ng) from each sample was reverse-transcribed and PCR was performed using a Superscript One-step RT-PCR kit (Invitrogen). […] PCR products were run on 1.8% agarose gel and stained with 0.4 μg/ml ethidium bromide. Stained bands were visualized under UV light and photographed with a camera (Nikon […]).

[2] = system: RAB-1 and PMK-1 (MAPK pathway); test: RT-PCR of RAB-1 and PMK-1 transcripts (MAPK pathway) in C. elegans; settings: in vivo transcription after treatment; RF3 100 ppm, 2 days
Procedure: as §1

CC(=O)O [Acetic acid, acetic acid]
lifespan-extending effect on C. elegans [1]: showed lifespan-extending effect | DAF-16 expression (DAF-16): significant increase | MAPK pathway activation (RAB-1 and PMK-1 transcription levels) [2]: apparently not involved
